Laboratory results reported in US20220313651A1, “INHIBITORS OF ZIKA VIRUS INFECTION” (priority 2019, published 2022).
Where two headings read alike, the source gives them in different places.

Legend:
[1] = test system: DENV-4-PR 06-65-740 (2006/Puerto Rico); assay: microbe, parasite or virus in culture
Source text: (§1) Vero E6 and LLC-MK2 cells were maintained in Dulbecco's Modified Eagle Medium (DMEM) supplemented with 8% fetal bovine serum (FBS) and penicillin and streptomycin (P/S). C6/36 cells were maintained in Eagle's Minimal Essential Medium (EMEM) supplemented with 5% FBS and P/S. ZIKV strains, including human strains PAN2016 (2016/Panama), R116265 (2016/Mexico), PAN2015 (2015/Panama), FLR (2015/Colombia), R103451 (2015/Honduras), PRVABC59 (2015/Puerto Rico), PLCal_ZV (2013/Thailand), and IbH 30656 (1968/Nigeria), mosquito strain MEX 2-81 (2016/Mexico), and rhesus macaque strain MR 766 (1947/Uganda), were used in the studies. These ZIKV strains were cultured in Vero E6 cells, and viral titers were detected by a standard plaque-forming assay. DENV human strains, including type 1: DENV-1-V1792 (2007/Vietnam), type 2: DENV-2-V594 (2006/Puerto Rico), type 3: DENV-3-V1043 (2006/Puerto Rico), and type 4: DENV-4-PR 06-65-740 (2006/Puerto Rico), were cultured in C6/36 cells, and the viral titers were determined by plaque-forming assay as described above.
(§2) The inhibitory activity of the Z-medicaments against DENV-1-4 was performed following the similar procedures as for ZIKV, except that LLC-MK2 cells were used for the infection, and cells were cultured at 37° C. for 14-16 days before staining with 0.5% crystal violet.
(§3) After removal of the unbound compounds by centrifugation after addition of 3% PEG-6000, ZIKV was incubated with Vero E6 cells at 37° C. for 1 h. The cells were then washed with PBS, overlaid with DMEM containing 1% carboxymethyl cellulose and 2% FBS, and cultured at 37° C. for 4-5 days, followed by staining with 0.5% crystal violet.

[2] = test system: DENV-1-V1792 (2007/Vietnam); assay: microbe, parasite or virus in culture
Source text: as §1, §2, §3

[3] = test system: DENV-3-V1043 (2006/Puerto Rico); assay: microbe, parasite or virus in culture
Source text: as §1, §2, §3

[4] = test system: DENV-2-V594 (2006/Puerto Rico); assay: microbe, parasite or virus in culture
Source text: as §1, §2, §3

Vero E6 cells = assay: in vitro
Experimental: The cytotoxicity of the Z-medicaments in Vero E6 (ZIKV target cells) was evaluated using the Cell Counting Kit-8 (CCK8).
Briefly, compounds at 2-fold serial dilutions were added to cells (2.0×10^4/well) pre-seeded in 96-well plates. The cells were cultured at 37° C. for 3 days, and incubated with CCK8 solution, followed by measurement of absorbance at 450 nm (A450 value) using microplate reader.

[5] = molecular target: ZIKV full-length E protein (Zika virus, UniProt Q32ZE1); assay: ELISA binding to ZIKV full-length E protein
Experimental: Binding of compounds (NPs) to ZIKV full-length E (FIG. 3A), EDIII (FIG. 3B), and NS2B-NS3 (FIG. 3C) proteins, was detected by ELISA. The percent binding was reported in the presence or absence of serially diluted NPs using the formula (1-[E/EDIII-NP]/[E/EDIII])×100 (for E/EDIII binding) or (1-[NS2B-NS3-NP]/[NS2B-NS3])×100 (for NSEB-NS3 binding). […] The concentrations of ZIKV EDIII and mAbs were 1.5 and 0.5 μg/ml, respectively. […] The concentrations of substrate (Bz-Nle-Lys-Lys-Arg-AMC) and ZIKV NS2B-NS3 protein were 4 μM and 1 μg/ml, respectively. The percent inhibition of protease activity was calculated in the presence or absence of serially diluted compounds using the formula (1-[NS2B-NS3-substrate-NP]/[NS2B-NS3-substrate])×100. The IC50 values were calculated based on the percent inhibition. The data are expressed as mean±s.e.m. (n=4).
The data are expressed as mean±s.e.m. (n=4), and DMSO was used as negative control. Surface plasmon resonance (SPR) analysis of the binding between ST087010 and ZIKV EDIII (FIG. 6D) or NS2B-NS3 (FIG. 6E) protein was performed. Binding affinity was shown as KD (equilibrium dissociation constant).
The binding between the Z-medicament and ZIKV full-length E protein, EDIII protein (E residues 298-409 fused with a C-terminal human Fc), or NS2B-NS3 protease was carried out by ELISA. Briefly, ELISA plates were pre-coated with the proteins described above at 4° C. overnight, and blocked with 2% fat-free milk at 37° C. for 2 h. Serial dilutions of the Z-medicament or DMSO (control) were then added to the plates and incubated at 37° C. for 2 h. The plates were washed with PBS containing Tween-20 (PBST), and incubated at 37° C. for 1 h with ZIKV EDIII-specific human mAb ZKA64-LALA (0.5 μg/ml) (for binding to ZIKV full-length E and EDIII proteins), or mouse sera specific to ZIKV NS2B-NS3 (for binding to NS2B-NS3 protease). The plates were washed with PBST, and incubated with horseradish peroxidase (HRP)-conjugated anti-human IgG-Fab (1:3000) or anti-mouse IgG (1:3000) antibody at 37° C. for 1 h. The 3,3′,5,5′-tetramethylbenzidine (TMB) substrate was added to the plates, and the reaction was stopped by 1 N H2SO4. Absorbance at 450 nm (A450 value) was measured by ELISA microplate reader.
Briefly, ELISA plates were coated with each protein (1 μg/ml) at 4° C. overnight, and were then incubated with blocking buffer containing 2% fat-free milk in PBST at 37° C. for 2 h. The above compounds, or DMSO control, at serial dilutions were added to the plates, and incubated at 37° C. for 2 h. After three washes using PBST, the plates were incubated at 37° C. for 2 h with ZIKV EDIII-specific human mAb ZKA64-LALA (0.5 μg/ml) (for binding to ZIKV full-length E or EDIII protein), or ZIKV NS2B-NS3-specific mouse sera (for binding to NS2B-NS3 protein). After further washes, the plates were incubated with HRP-conjugated anti-human IgG-Fab (1:3,000) or anti-mouse IgG (1:3,000) antibody at 37° C. for 1 h. The plates were incubated with substrate TMB, and the reaction was stopped by addition of 1 N H2SO4. Absorbance at 450 nm (A450 values) was measured by an ELISA microplate reader. EC50 values were calculated.

[6] = Dengue virus, DENV4, LLC-MK2, read-out: IC50 DENV-4-PR 06-65-740, LLC-MK2 cells, Table 5
[7] = Dengue virus, DENV1, LLC-MK2, read-out: IC50 DENV-1-V1792, LLC-MK2 cells, Table 5
[8] = Dengue virus, DENV3, LLC-MK2, read-out: IC50 DENV-3-V1043, LLC-MK2 cells, Table 5
[9] = Dengue virus, DENV2, LLC-MK2, read-out: IC50 DENV-2-V594, LLC-MK2 cells, Table 5
[10] = Vero E6 cells, 3 days, CCK8, Table 1

With Cc1cc2c(C(C)C)c(O)c(O)c(/C=N/n3c(=O)[nH][nH]c3=O)c2c(O)c1-c1c(C)cc2c(C(C)C)c(O)c(O)c(/C=N/n3c(=O)[nH][nH]c3=O)c2c1O [ST087010] the “SI (CC50/IC50), DENV-4-PR 06-65-740” value [1] was 15.8, the IC50 ([1]; read-out: IC50 DENV-4-PR 06-65-740, LLC-MK2 cells, Table 8) was 2.98 ± 0.18 µM and the “SI (CC50/IC50), DENV-1-V1792” value [2] was 15.7. The IC50 ([2]; read-out: IC50 DENV-1-V1792, LLC-MK2 cells, Table 8) was 3.01 ± 0.11 µM, the “SI (CC50/IC50), DENV-3-V1043” value [3] was 14.2 and the IC50 ([3]; read-out: IC50 DENV-3-V1043, LLC-MK2 cells, Table 8) was 3.33 ± 0.08 µM. The “SI (CC50/IC50), DENV-2-V594” value [4] was 14.8, the IC50 ([4]; read-out: IC50 DENV-2-V594, LLC-MK2 cells, Table 8) was 3.19 ± 0.01 µM and the “CC50 relative to that of gossypol” value (Vero E6 cells; Vero E6 cells) was “about 3.5 fold”. For the same molecule, the CC50 (Vero E6 cells; Vero E6 cells, Table 7, gossypol derivatives) was 49.6 ± 1.83 µM and the EC50 ([5]; detected with mAb ZKA64-LALA) was 6.47 µM.

Molecule C[C@@H]1CC[C@@]2(OC1)O[C@H]1[C@@H](O)[C@H]3[C@@H]4CC[C@H]5C[C@@H](O[C@@H]6O[C@H](CO)[C@H](O[C@@H]7O[C@H](CO)[C@@H](O)[C@H](O[C@@H]8OC[C@@H](O)[C@H](O)[C@H]8O)[C@H]7O[C@@H]7O[C@H](CO)[C@H](O)[C@H](O[C@@H]8O[C@H](CO)[C@@H](O)[C@H](O)[C@H]8O)[C@H]7O)[C@H](O)[C@H]6O)[C@H](O)C[C@]5(C)[C@H]4CC[C@]3(C)[C@H]1[C@@H]2C [Digitonin, digitonin] has an IC50 [1, 6] of 6.44 ± 0.34 µM, an IC50 [2, 7] of 5.21 ± 0.35 µM and an IC50 [3, 8] of 4.07 ± 0.83 µM. For the same molecule, the IC50 [4, 9] was 6.56 ± 0.21 µM, the CC50 (Vero E6 cells; [10]) was 56.3 ± 1.2 µM and the “Binding to ZIKV full-length E protein (in words)” value (“Binding” below) [5] was “bound to no ZIKV proteins tested”.

For C[C@H]1[C@H]2CC[C@H]3[C@@H]4CC=C5C[C@@H](N(C)C)CC[C@]5(C)[C@H]4CC[C@]23CN1C [Conessine, conessine], the “Binding” value [5] was “bound to no ZIKV proteins tested”.

With COc1cc(/C=C/C(=O)CC(=O)/C=C/c2ccc(O)c(OC)c2)ccc1O [Curcumin, curcumin] the CC50 (Vero E6 cells; [10]) was 52.86 ± 0.52 µM and the “Binding” value [5] was “much lower binding affinity”.

In the case of Cc1cc2c(C(C)C)c(O)c(O)c(C=O)c2c(O)c1-c1c(C)cc2c(C(C)C)c(O)c(O)c(C=O)c2c1O [Gossypol, gossypol], the IC50 [1, 6] is reported as 2.6 µM, the IC50 ([1]; Dengue virus, DENV4, LLC-MK2, read-out: IC50 DENV-4-PR 06-65-740, LLC-MK2 cells, Table 8) is reported as 2.83 ± 0.07 µM and the IC50 [2, 7] is reported as 1.87 µM. The IC50 ([2]; Dengue virus, DENV1, LLC-MK2, read-out: IC50 DENV-1-V1792, LLC-MK2 cells, Table 8) was 2.06 ± 0.13 µM, the IC50 [3, 8] was 3.7 µM and the IC50 ([3]; Dengue virus, DENV3, LLC-MK2, read-out: IC50 DENV-3-V1043, LLC-MK2 cells, Table 8) was 3.42 ± 0.11 µM. It also gave an IC50 [4, 9] of 1.89 µM, an IC50 ([4]; Dengue virus, DENV2, LLC-MK2, read-out: IC50 DENV-2-V594, LLC-MK2 cells, Table 8) of 1.91 ± 0.01 µM and a CC50 (Vero E6 cells; African green monkey, 3 days) of 14.2 ± 0.74 µM.
